According to publication PMC8162404, “Proteomimetic surface fragments distinguish targets by function” (Chemical Science, 2020):

How the values were obtained:
Gal-1 [1] = biological target: T1, Gal-1 (Homo sapiens, UniProt P09382); experiment: Pull-down assay with immobilized protein and LSM libraries; assay type: binding; conditions: H14 library; 1:1 binding assumed; read-out: Surface mapping KD (apparent)
T1 construct: made in house; host or cells: E. coli BL21(DE3)
In short: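 His-tagged protein immobilized on Co-NTA resin (64 µM) in 20 mM HEPES pH 7.4, 150 mM NaCl, equilibrated 30 min at room temperature with foldamer LSM sublibraries at equimolar total concentration. Unbound fractions quantified by HPLC-MS versus protein-free resin control; apparent KD assumes 1:1 binding.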

S100B [2] = biological target: T2, S100B (Homo sapiens, UniProt P04271); experiment: as above; assay type: binding; conditions: for Kd: H14 library, 1:1 binding assumed, read-out: Surface mapping KD (apparent)
T2 construct: made in house; host or cells: Escherichia coli BL21(DE3)
T2 sequence (P04271 1-92): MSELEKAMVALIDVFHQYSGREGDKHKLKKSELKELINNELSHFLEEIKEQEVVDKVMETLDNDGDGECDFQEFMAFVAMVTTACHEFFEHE
In short: (§1)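 Buffers were HEPES pH 7.4 with 150 mM NaCl, plus 1 mM TCEP and 1 mM CaCl2 (50 mM HEPES) for S100A4 and S100B, 1 mM TCEP for Gal-1, and no additive for RecQ-WH. Immobilized protein at 64 µM was equilibrated 30 min with the LSM sublibrary, and unbound probes were measured by LC-MS.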

S100A4 = biological target: T3, S100A4 (Homo sapiens, UniProt P26447); experiment: as above; assay type: binding; conditions: for Kd: H14 library, 1:1 binding assumed, read-out: Surface mapping KD (apparent)
T3 construct: made in house; host or cells: Escherichia coli BL21(DE3)
T3 sequence (P26447 whole entry): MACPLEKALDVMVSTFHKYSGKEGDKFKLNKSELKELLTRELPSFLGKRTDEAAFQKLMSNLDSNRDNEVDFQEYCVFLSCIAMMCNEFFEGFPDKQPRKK
In short: as §1

S100B [3] = biological target: T2, S100B; experiment: Competition pull-down with native ligand RSK1 (689–735); assay type: binding; conditions: H14 library; competitor peptide 200 µM; read-out: Surface mapping KD (apparent), competition
RecQ-WH = biological target: T4, RecQ-WH (Escherichia coli, UniProt P15043); experiment: Pull-down assay with immobilized protein and LSM libraries; design: species or system E. coli; conditions: H14 library; 1:1 binding assumed; read-out: Surface mapping KD (apparent)
T4 construct: coding for residues 408– 523 of E. coli RecQ; made in house; host or cells: E. coli BL21(DE3)
T4 sequence (P15043 408-523): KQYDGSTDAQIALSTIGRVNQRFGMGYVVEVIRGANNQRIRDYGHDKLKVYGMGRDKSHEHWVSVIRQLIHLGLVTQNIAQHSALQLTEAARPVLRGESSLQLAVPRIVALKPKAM
Description: Pull-down assays with immobilized test proteins and foldameric LSM libraries were carried out. Proteins were equilibrated with LSM probes, and equilibrium bound fractions (FB) were determined from the unbound fractions measured by HPLC-MS methods. Hits were corrected with background binding of the resin. The protocol allowed all binding events to equilibrate irrespective of affinity, specificity, and binding kinetics. This was essential to judge overall druggability and promiscuity. Importantly, the concentration of protein and the total concentration of foldameric LSMs were equimolar, which minimized competition between the probes. This experimental setup approximated independent binding of individual library members. Results were visualized as heat maps of dissociation constants (Fig. 3).
Pull-down assay and data analysis
Pull-down assay. LSM sublibraries were screened separately as previously described.(2) Experiments were performed in the following buffers: (i) 20 mM pH 7.4 HEPES, 150 mM NaCl, 5 mM CaCl2 for CaM; (ii) 50 mM pH 7.4 HEPES, 150 mM NaCl, 1 mM TCEP, 1 mM CaCl2 for S100 proteins; (iii) 20 mM pH 7.4 HEPES, 150 mM NaCl, 1 mM TCEP for Gal-1 and (iv) 20 mM pH 7.4 HEPES, 150 mM NaCl for RecQ-WH. Assays were performed in paper filter spin cups (Thermo Scientific) with sample volumes of 100 µl. Hexahistidine-tagged proteins were immobilized on previously washed Co-NTA resin (TALON, Takara Bio USA, Inc., Mountain View, CA) in 64 µM final concentration. LSM sublibrary was added, in which each of the 64 library members were used at a concentration of 1 µM. Samples were incubated at room temperature for 30 min with shaking at 100 rpm. Then, samples were centrifuged at 1000 rpm for 2 min and washed with 100 µl pull-down buffer to remove unbound compounds.
The control experiments were performed using the same compounds and the resin but without the immobilized protein. In case of competitive assays, competitor peptides were added to LSM sublibrary samples in 200 µM final concentration. In the case of Gal-1, lactose (competitor) was used in a concentration of 10 mM. Experiments were performed at least twice. Mean […]
LC-MS methods and parameters. HPLC/ESI-MS analysis was used to characterize the samples from the pull-down assay. LC-MS analysis was performed with a Thermo Scientific Dionex UltiMate 3000 HPLC system interfaced to an LTQ ion trap mass spectrometer (Thermo Electron Corp., San Jose, CA, USA). Samples were injected onto an Aeris Widepore XB-C18 (250 x 4.6 mm) analytical HPLC column using gradient elution 5-80 % solution B during 25 minutes. For pull-down samples, eluent composition was 0.1% acetic acid in distilled water (Solution A) and 0.1% acetic acid in acetonitrile (solution B). Mass spectra were acquired in full scan mode from 200 to 2000 m/z range. For overlapping peaks, selective reaction monitoring (SRM) was […]
MS data analysis. Thermo Xcalibur 2.2 software was used for peak identification and integration. The majority of the foldameric fragments could be resolved independently via HPLC-MS/MS measurements based on molecular weight, MS fragmentation pattern and retention time. Peaks of some foldamers with β3-hIle or β3-hLeu in position R2 could not be resolved, these were integrated and averaged. In the processing method, each sample component was associated to a chromatographic peak based on previously identified mass (m/z) and retention time (ref (2) and Table S7-10). Using ICIS peak detection algorithm, the general detection and integration criteria were: smoothing points: 5, baseline window: 80, area noise factor: 5, peak noise factor: 10. Using these processing setups, all raw data files were reprocessed together and analyzed. Errors in peak identification during the automatic processing were corrected manually.
Calculation of the discussed parameters
1. Bound fractions (FB.) were calculated from the HPLC-MS intensity loss of the LSM probes compared to the control where no protein was immobilized to the resin: […]

CaM [4] = biological target: T5, CaM (Bos taurus, UniProt P62157); experiment: as above; assay type: binding, bovine; conditions: H14 library; 1:2 stoichiometry assumed; read-out: Surface mapping KD (apparent)
T5 construct: made in house; host or cells: E. coli BL21 (DE3)
In short: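 His-tagged protein immobilized on Co-NTA resin, equilibrated 30 min at room temperature with LSM sublibraries (64 members, […]), equimolar protein to total probe. CaM buffer: 20 mM HEPES pH 7.4, 150 mM NaCl, 5 mM CaCl2. Bound fractions from HPLC-MS loss of unbound probe versus protein-free resin control; Kd derived.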

CaM [5] = biological target: T5, CaM; experiment: Competition pull-down with native ligand TRPV1-Ct15; assay type: binding, bovine; conditions: H14 library; competitor peptide 200 µM; read-out: Surface mapping KD (apparent), competition
Gal-1 [6] = biological target: T1, Gal-1; experiment: Competition pull-down with lactose; assay type: binding; conditions: H14 library; lactose 10 mM; read-out: Surface mapping KD (apparent), competition
In short: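 His6-tagged proteins immobilized on Co-NTA resin at 64 µM final with 64-member LSM foldamer sublibraries (1 M each, as printed) in pH 7.4 HEPES/NaCl buffers (Ca2+/TCEP per target), 30 min RT; competitor peptides 200 µM final, lactose 10 mM for Gal-1. Bound fractions from LC-MS loss vs protein-free resin; KD assuming 1:1 binding.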

[7] = H14 probes selected for validation

T1 sequence (P09382 whole entry): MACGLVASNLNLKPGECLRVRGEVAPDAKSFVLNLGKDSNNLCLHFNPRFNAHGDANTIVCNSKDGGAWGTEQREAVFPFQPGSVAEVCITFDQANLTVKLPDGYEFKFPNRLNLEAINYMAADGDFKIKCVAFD

Compound	Kd (Gal-1 [1]) [µM]	Kd (S100B [2]) [µM]	Kd (S100A4) [µM]	Kd (S100B [3]) [µM]	Kd (RecQ-WH) [µM]	Kd (CaM [4]) [µM]	Kd (CaM [5]) [µM]	Kd (Gal-1 [6]) [µM]	Binding (S100B [2]; H14 probes)	Affinity class of probe (high, medium, low) in pull-down (S100B [2]; [7])	Binding (S100A4; H14 probes)	Affinity class of probe (high, medium, low) in pull-down (S100A4; [7])
C[C@@H](O)[C@@H](CC(=O)N[C@H]1CCCC[C@@H]1C(N)=O)NC(=O)[C@H]1CCCC[C@@H]1NC(=O)[C@H]1CCCC[C@@H]1NC(=O)C[C@H](Cc1ccccc1)NC(=O)[C@H]1CCCC[C@@H]1N [H14 FT]	348	274	135	333	218	11	–	–	–	–	–	–
N=C(N)NCCC[C@@H](CC(=O)N[C@H]1CCCC[C@@H]1C(N)=O)NC(=O)[C@H]1CCCC[C@@H]1NC(=O)[C@H]1CCCC[C@@H]1NC(=O)C[C@H](CCCCN)NC(=O)[C@H]1CCCC[C@@H]1N [H14 KR]	–	22	–	–	486	22	249	323	–	–	–	–
N=C(N)NCCC[C@@H](CC(=O)N[C@H]1CCCC[C@@H]1C(N)=O)NC(=O)[C@H]1CCCC[C@@H]1NC(=O)[C@H]1CCCC[C@@H]1NC(=O)C[C@H](CCCNC(=N)N)NC(=O)[C@H]1CCCC[C@@H]1N [H14 RR]	–	18	–	–	355	10	103	–	binds	high	does not	low
CC(C)[C@@H](CC(=O)N[C@H]1CCCC[C@@H]1C(=O)N[C@H]1CCCC[C@@H]1C(=O)N[C@H](CC(=O)N[C@H]1CCCC[C@@H]1C(N)=O)Cc1ccc(O)cc1)NC(=O)[C@H]1CCCC[C@@H]1N [H14 VY]	318	110	50	167	115	30	–	–	–	–	–	–
CC(C)[C@@H](CC(=O)N[C@H]1CCCC[C@@H]1C(N)=O)NC(=O)[C@H]1CCCC[C@@H]1NC(=O)[C@H]1CCCC[C@@H]1NC(=O)C[C@H](CCCCN)NC(=O)[C@H]1CCCC[C@@H]1N [H14 KV]	–	102	71	–	442	50	376	–	–	–	–	–
CC[C@H](C)[C@@H](CC(=O)N[C@H]1CCCC[C@@H]1C(=O)N[C@H]1CCCC[C@@H]1C(=O)N[C@H](CC(=O)N[C@H]1CCCC[C@@H]1C(N)=O)Cc1ccc(O)cc1)NC(=O)[C@H]1CCCC[C@@H]1N [H14 IY]	258	74	20	156	300	15	–	–	–	–	–	–
NC(=O)CC[C@@H](CC(=O)N[C@H]1CCCC[C@@H]1C(N)=O)NC(=O)[C@H]1CCCC[C@@H]1NC(=O)[C@H]1CCCC[C@@H]1NC(=O)C[C@H](Cc1c[nH]c2ccccc12)NC(=O)[C@H]1CCCC[C@@H]1N [H14 WQ]	–	161	191	–	473	16	495	–	–	–	–	–
NC(=O)[C@H]1CCCC[C@@H]1NC(=O)C[C@H](CO)NC(=O)[C@H]1CCCC[C@@H]1NC(=O)[C@H]1CCCC[C@@H]1NC(=O)C[C@H](Cc1ccccc1)NC(=O)[C@H]1CCCC[C@@H]1N [H14 FS]	–	364	111	429	303	15	–	–	–	–	–	–
N=C(N)NCCC[C@@H](CC(=O)N[C@H]1CCCC[C@@H]1C(=O)N[C@H]1CCCC[C@@H]1C(=O)N[C@@H](CCCCN)CC(=O)N[C@H]1CCCC[C@@H]1C(N)=O)NC(=O)[C@H]1CCCC[C@@H]1N [H14 RK]	–	22	–	–	486	22	249	323	–	–	–	–
N=C(N)NCCC[C@@H](CC(=O)N[C@H]1CCCC[C@@H]1C(N)=O)NC(=O)[C@H]1CCCC[C@@H]1NC(=O)[C@H]1CCCC[C@@H]1NC(=O)C[C@H](Cc1ccc(O)cc1)NC(=O)[C@H]1CCCC[C@@H]1N [H14 YR]	377	67	117	–	421	11	117	309	–	–	–	–
NC(=O)[C@H]1CCCC[C@@H]1NC(=O)C[C@H](Cc1ccccc1)NC(=O)[C@H]1CCCC[C@@H]1NC(=O)[C@H]1CCCC[C@@H]1NC(=O)C[C@H](CCC(=O)O)NC(=O)[C@H]1CCCC[C@@H]1N [H14 EF]	–	476	–	126	241	–	–	430	–	–	–	–
